For assay [1], the system named is Human dermal fibroblasts. As to the kind of experiment: Cell activity (AlamarBlue) of cells irradiated with UV through a solution of the UV wavelength conversion substance. The class given is cell-based. The conditions noted are these: UV 0 to 100 mJ/cm^2, FIG. 3. The protocol: The UV wavelength conversion substances (3) and (4) were dispersed in alcohol to prepare 5% and 10% dispersions.
(§1) 1. Human dermal fibroblasts and human skin keratinocytes purchased from Kurabo Industries Ltd. were used. A cell suspension (1 mL) stored in liquid nitrogen was thawed in a water bath (37° C.) to an extent that small ice pellets remained, and then diluted with 9 mL of warm medium. 2. The diluted suspension was mixed gently and then transferred to a T75 flask and incubated overnight at 37° C. 3. The next day, the medium was replaced with 10 mL of fresh medium. 4. The medium was replaced periodically (once every 2 days for fibroblasts and once every 2 to 3 days for keratinocytes) and cell proliferation was continued. Meanwhile, the cells were observed using a microscope, and it was confirmed that the cells grew in the correct form. 5. After the cells reached about 80% confluence, the cells were passaged. The cells were passaged by washing the cells once with 10 mL of warm PBS, adding 5 mL of warm trypsin to a T75 flask, covering the bottom of the flask with a trypsin solution, followed by aspirating at room temperature for 1 minute. 6. The flask was allowed to stand in an oven at 37° C. for (maximum) 2 minutes for fibroblasts and (maximum) 7 minutes for keratinocytes. The cells were observed using a microscope and confirmed to be small and oval. 7. […]
In general terms: Resazurin is reduced to fluorescent resorufin, in cell work by metabolically active cells.

Assay [2] relates to Human dermal fibroblasts. As to the kind of experiment: Restoration of cell activity decreased by UV irradiation (AlamarBlue). Format: cell-based. The conditions noted are these: FIG. 5. The protocol:
as §1, with “7. Thereafter, the side of the T75 flask was lightly tapped to release the cells.” for “7.”

The record followed here is patent US20220175637A1, “COMPOSITION COTAINING ULTRAVIOLET WAVELENGTH-CONVERTING SUBSTANCE AND HYDROPHOBIZED SILICA AND/OR HYDROPHOBIZED STARCH” (Shiseido Company, Ltd., priority 2019, published 2022).

With C-phycocyanin, the “cell activity at UV irradiation (relative fluorescence intensity)” value in the assay on Human dermal fibroblasts [1] (0.4% C-phycocyanin solution) was “the decrease in cell activity was suppressed”; with Human dermal fibroblasts [1] (2% C-phycocyanin solution, compared to no UV irradiation), “the cell activity was even increased”. For the same substance, in the assay with Human dermal fibroblasts [2] (0.4% versus 2% solution), the “cell activity recovery effect, comparison of concentrations” value was “equivalent at concentrations of 0.4% and 2%”. For the same substance, in the assay with Human dermal fibroblasts [2] (pre-irradiation 400 mJ/cm^2 without substance, then UV 0 to 200 mJ/cm^2 through 0.4% or 2% solution), the “cell activity of cells having activity temporarily reduced (relative fluorescence intensity)” value is reported as “cell activity was recovered”.
